Kd data for 1 molecule are collected here from paper PMC6934455, “Molecular Dynamics model of peptide-protein conjugation: case study of covalent complex between Sos1 peptide and N-terminal SH3 domain from Grb2” (Scientific Reports, 2019).

The assay addresses T1, C32S Grb2 N-SH3 (Homo sapiens, UniProt P62993, C32S).
T1 construct: encoding residues 2–59 of human Grb2; His6 (N); host or cells: E. coli Rosetta DE3 (Novagen)
The assay is described as follows: 1HN,15N-HSQC NMR titration, noncovalent binding.

T1 sequence (P62993 2-59 C32S): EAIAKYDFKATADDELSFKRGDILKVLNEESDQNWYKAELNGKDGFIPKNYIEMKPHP
Description: For quantitative analysis, we have selected a group of 8 well-resolved peaks showing substantial titration effects. The two-dimensional HSQC titration data for these peaks have been fitted using the program TITAN[39] on per-residue basis, as well as collectively (illustrated in Fig. 1D; for complete summary see Fig. S1).
pET-28 vectors for Grb2 N-SH3 (WT and C32S) encoding residues 2–59 of human Grb2 have been purchased from GenScript. The protein additionally containing N-terminal His6-tag was expressed in Rosetta DE3 cells (Novagen) using minimal M9 media. ^15N-NH4Cl and ^13C-glucose supplements have been used for isotope labeling. Protein expression was induced when OD600 reached 0.8. After 16 hours of incubation at 37 °C, cells were harvested, suspended in the standard lysis buffer (containing 2 mM of DTT) and then homogenized by SPEX SamplePrep 6870 Freezer/Mill followed by three rounds of sonication on ice. The sample was purified using Ni-affinity and size-exclusion chromatography (columns GE HisTrap HP and GE Sephacryl S-200 HR).
All measurements were conducted at 25 °C using 500 MHz Bruker Avance III spectrometer equipped with TBI room temperature probe. […] The buffer additionally contained 150 mM NaCl.
The peptide concentration was incremented from 0 to 160 μM in a step of 20 μM and then brought to 240 μM. […] The results were analyzed using the program TITAN[39].

Turning to `CC(C)[C@H](N)C(=O)N1CCC[C@H]1C(=O)N1CCC[C@H]1C(=O)N1CCC[C@H]1C(=O)N[C@H](C(=O)N1CCC[C@H]1C(=O)N1CCC[C@H]1C(=O)N[C@@H](CCCNC(=N)N)C(=O)N[C@@H](CCCNC(=N)N)C(=O)N[C@@H](CCCNC(=N)N)C(=O)N[C@@H](CCCCNC(=O)CCl)C(=O)O)C(C)C` [Sos1-X′], the Kd (usually the free concentration of one partner at which half of the binding sites on the other are occupied at equilibrium, for simple one-to-one binding) is 4.9 µM.
